Converted amounts (≈) assume the structure as drawn.

The subject of one experiment is MCF7. Briefly: Antiproliferative activity against human MCF7 cells assessed as reduction in cell viability incubated for 24 hrs by soft agar assay. The format is functional, cell-based. Conditions: MCF7, 24 h.
The test system of experiment [1] is MDA-MB-231. Briefly: Antiproliferative activity against human MDA-MB-231 cells assessed as reduction in cell viability incubated for 24 hrs by soft agar assay. Conditions: MDA-MB-231, 24 h. The format is functional, cell-based.
Experiment [2] deals with Glycogen synthase kinase-3 beta (Homo sapiens, UniProt P49841). Briefly: Inhibition of recombinant GSK-3beta (unknown origin) using GS peptide as substrate in presence of ATP incubated for 1 hrs by ADP-Glo kinase assay. (In ADP-Glo the light output rises with the ADP produced.)
The target in the next experiment is Tubulin (Sus scrofa, UniProt P02554+P02550). Briefly: Inhibition of porcine brain tubulin polymerization preincubated for 1 mins followed by GTP addition and measured for 60 mins at 1 min interval by fluorescence assay.
The next experiment relates to HeLa. Briefly: Antiproliferative activity against human HeLa cells assessed as reduction in cell viability incubated for 48 hrs by MTT assay. The format is functional, cell-based.
The next experiment relates to A549. Briefly: Antiproliferative activity against human A549 cells assessed as reduction in cell viability incubated for 48 hrs by MTT assay. The format is functional, cell-based. As to conditions: A549, 48 h.
For the next experiment, the system named is Bel-7402. Briefly: Antiproliferative activity against human Bel-7402 cells assessed as reduction in cell viability incubated for 48 hrs by MTT assay. As to conditions: Bel-7402, 48 h. The format is functional, cell-based. On the technique in general: Formazan colour is commonly taken as a measure of viable cells.
The test system of the next experiment is PC-3. Briefly: Antiproliferative activity against human PC-3 cells assessed as reduction in cell viability incubated for 48 hrs by MTT assay. Conditions: PC-3, 48 h. The format is functional, cell-based.
The subject of experiment [3] is MDA-MB-231. Briefly: Antiproliferative activity against human MDA-MB-231 cells assessed as reduction in cell viability incubated for 48 hrs by MTT assay. The format is functional, cell-based. As to conditions: MDA-MB-231, 48 h.
Experiment [4] deals with T1, Amine oxidase [flavin-containing] A (Homo sapiens, UniProt P21397).
T1 sequence (P21397 whole entry): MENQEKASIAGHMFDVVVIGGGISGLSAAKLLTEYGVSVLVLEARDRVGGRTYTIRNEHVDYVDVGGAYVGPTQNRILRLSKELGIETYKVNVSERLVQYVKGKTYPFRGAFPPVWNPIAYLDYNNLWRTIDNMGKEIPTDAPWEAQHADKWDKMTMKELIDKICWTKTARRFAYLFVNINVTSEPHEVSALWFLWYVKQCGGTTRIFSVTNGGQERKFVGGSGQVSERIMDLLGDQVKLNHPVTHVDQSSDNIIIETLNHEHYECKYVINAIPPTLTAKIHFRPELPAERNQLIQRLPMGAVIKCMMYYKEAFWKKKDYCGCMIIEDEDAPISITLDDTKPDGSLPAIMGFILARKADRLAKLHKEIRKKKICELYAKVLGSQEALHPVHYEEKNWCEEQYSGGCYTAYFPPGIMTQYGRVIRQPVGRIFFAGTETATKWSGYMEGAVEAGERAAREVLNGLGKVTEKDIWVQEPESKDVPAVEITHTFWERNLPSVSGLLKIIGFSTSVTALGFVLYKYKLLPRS
Briefly: Inhibition of recombinant human MAO-A assessed as inhibition of 4-hydroxyquinoline formation using kynuramine as substrate incubated for 20 mins by fluorescence assay.

The target of experiment [5] is T2, Amine oxidase [flavin-containing] B (Homo sapiens, UniProt P27338).
T2 sequence (P27338 whole entry): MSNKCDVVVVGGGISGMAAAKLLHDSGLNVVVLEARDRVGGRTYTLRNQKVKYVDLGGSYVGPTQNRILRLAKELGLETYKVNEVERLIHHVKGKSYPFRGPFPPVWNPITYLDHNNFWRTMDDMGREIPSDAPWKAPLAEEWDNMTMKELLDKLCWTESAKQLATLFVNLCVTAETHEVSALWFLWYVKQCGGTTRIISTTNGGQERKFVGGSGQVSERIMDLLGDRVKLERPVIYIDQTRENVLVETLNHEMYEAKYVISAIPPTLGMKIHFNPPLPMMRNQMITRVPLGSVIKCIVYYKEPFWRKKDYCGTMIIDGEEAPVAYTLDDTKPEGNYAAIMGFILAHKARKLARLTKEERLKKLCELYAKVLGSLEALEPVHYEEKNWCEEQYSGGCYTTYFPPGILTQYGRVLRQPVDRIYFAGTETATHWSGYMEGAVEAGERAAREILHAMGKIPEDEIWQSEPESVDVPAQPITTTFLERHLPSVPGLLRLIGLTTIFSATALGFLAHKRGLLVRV
Briefly: Inhibition of recombinant human MAO-B assessed as inhibition of 4-hydroxyquinoline formation using kynuramine as substrate incubated for 20 mins by fluorescence assay.

A further experiment is filed under the species Homo sapiens. Briefly: Selectivity index, ratio of IC50 for inhibition of recombinant human MAO-A to IC50 for inhibition of recombinant human MAO-B.
The nature of experiment [6]: Selectivity ratio of IC50 for antiproliferative activity against human MES-SA cells to IC50 for antiproliferative activity against doxorubicin resistant human MES-SA/Dx5 cells. The format is functional.
A short description of experiment [7]: Inhibition of Saccharomyces cerevisiae full-length ai5gamma intron self-splicing by fluorimetric assay.
The next experiment relates to Candida parapsilosis. Briefly: Antifungal activity against Candida parapsilosis assessed as reduction in fungal growth. The format is functional. Conditions: Lodderomyces parapsilosis.
The target in experiment [8] is Amyloid-beta precursor protein (Homo sapiens, UniProt P05067). Briefly: Binding affinity to human brain homogenate amyloid beta by radioligand competition binding assay. The format is tissue-based. (Displacement assays read how much labelled ligand stays bound in the presence of the test substance.)
Experiment [9] in a line: Antioxidant activity assessed as DPPH radical scavenging activity at 100 uM measured for 20 mins by spectrophotometric analysis. The format is functional.
The nature of experiment [10]: Antioxidant activity assessed as DPPH radical scavenging activity at 100 uM measured for 60 mins by spectrophotometric analysis. The format is functional.
A short description of experiment [11]: Antioxidant activity assessed as ABTS radical scavenging activity at 100 uM incubated for 12 to 16 hrs in dark. As to conditions: time 12-16 hrs. The format is functional.
A short description of experiment [12]: Inhibition of AAPH induced lipid peroxidation. As to conditions: dose or concentration not given here.
The test system of experiment [13] is Human immunodeficiency virus 1. Briefly: Antiviral activity against HIV-1 infected in human C8166 cells assessed as reduction in virus-induced cytopathic effect by MTT assay. The format is functional, organism-based. Conditions: Human immunodeficiency virus 1, C8166.
The target of another experiment is T3, Tyrosinase (Agaricus bisporus, UniProt O42713).
T3 sequence (O42713 whole entry): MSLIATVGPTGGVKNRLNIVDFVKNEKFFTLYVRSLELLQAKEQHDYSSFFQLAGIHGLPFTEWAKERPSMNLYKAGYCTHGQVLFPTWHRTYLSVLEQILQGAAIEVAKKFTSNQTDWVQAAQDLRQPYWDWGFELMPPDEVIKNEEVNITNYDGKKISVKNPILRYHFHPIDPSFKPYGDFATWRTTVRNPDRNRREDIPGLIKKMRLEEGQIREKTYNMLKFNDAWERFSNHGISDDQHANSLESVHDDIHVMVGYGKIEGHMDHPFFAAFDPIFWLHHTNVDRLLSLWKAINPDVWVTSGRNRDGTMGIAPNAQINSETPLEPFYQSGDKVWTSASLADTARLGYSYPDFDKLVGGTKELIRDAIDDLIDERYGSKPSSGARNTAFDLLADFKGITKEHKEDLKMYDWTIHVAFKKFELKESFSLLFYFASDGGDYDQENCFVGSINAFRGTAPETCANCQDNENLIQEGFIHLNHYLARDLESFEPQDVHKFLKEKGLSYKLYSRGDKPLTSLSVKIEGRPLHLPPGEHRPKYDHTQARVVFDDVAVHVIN
Briefly: Inhibition of mushroom tyrosinase using L-DOPA as substrate incubated for 30 mins by spectrophotometric analysis.

The target in experiment [14] is Serine/threonine-protein kinase pim-1 (Homo sapiens, UniProt P11309). Briefly: Inhibition of PIM1 (unknown origin) using poly-Glu-Tyr (4:1) as substrate in presence of [gamma-33P-ATP] incubated for 2 hrs by radiometric kinase assay.
Serine/threonine-protein kinase pim-1, sequence (P11309 whole entry): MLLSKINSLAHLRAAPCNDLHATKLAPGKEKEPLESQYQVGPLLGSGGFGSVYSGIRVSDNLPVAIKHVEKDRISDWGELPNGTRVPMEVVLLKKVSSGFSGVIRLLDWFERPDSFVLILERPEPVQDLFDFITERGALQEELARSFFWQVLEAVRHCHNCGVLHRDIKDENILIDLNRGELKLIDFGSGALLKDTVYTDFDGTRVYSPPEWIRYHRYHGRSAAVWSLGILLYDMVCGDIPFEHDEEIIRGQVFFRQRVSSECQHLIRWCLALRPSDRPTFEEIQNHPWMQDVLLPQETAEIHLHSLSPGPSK

Amyloid-beta precursor protein, sequence (P05067 whole entry): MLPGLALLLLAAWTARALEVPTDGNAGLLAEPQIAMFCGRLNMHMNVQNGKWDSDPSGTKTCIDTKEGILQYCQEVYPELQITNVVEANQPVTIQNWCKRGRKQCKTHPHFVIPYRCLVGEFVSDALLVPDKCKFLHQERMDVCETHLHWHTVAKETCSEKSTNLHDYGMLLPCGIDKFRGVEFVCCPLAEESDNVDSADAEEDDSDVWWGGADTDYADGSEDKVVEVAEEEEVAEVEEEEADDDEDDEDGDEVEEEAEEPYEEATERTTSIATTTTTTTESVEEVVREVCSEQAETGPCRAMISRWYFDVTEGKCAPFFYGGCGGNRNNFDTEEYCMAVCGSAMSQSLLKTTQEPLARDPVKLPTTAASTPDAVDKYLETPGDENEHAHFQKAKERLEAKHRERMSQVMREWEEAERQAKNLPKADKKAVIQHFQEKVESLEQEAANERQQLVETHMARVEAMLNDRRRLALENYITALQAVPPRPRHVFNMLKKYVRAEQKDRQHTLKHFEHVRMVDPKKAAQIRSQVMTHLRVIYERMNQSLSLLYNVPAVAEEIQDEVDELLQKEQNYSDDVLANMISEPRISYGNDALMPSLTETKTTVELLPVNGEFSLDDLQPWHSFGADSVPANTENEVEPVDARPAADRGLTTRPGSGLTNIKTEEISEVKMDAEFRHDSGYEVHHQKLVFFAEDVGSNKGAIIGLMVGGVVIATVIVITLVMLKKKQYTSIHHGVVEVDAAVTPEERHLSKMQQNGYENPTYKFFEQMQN
Glycogen synthase kinase-3 beta, sequence (P49841 whole entry): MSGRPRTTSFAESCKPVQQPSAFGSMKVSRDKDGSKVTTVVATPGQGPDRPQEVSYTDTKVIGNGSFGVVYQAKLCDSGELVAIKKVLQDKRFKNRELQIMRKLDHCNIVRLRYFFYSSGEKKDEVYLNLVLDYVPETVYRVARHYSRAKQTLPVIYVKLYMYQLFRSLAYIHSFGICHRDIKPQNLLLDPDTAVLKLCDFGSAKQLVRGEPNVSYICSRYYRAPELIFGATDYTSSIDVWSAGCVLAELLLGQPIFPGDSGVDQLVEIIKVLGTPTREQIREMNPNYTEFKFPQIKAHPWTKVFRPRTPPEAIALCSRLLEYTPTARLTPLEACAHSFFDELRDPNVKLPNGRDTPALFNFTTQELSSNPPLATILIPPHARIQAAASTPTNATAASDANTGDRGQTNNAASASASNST

Take `COc1cc(C2/C(=C/c3ccc(F)cc3)C(=O)c3cc(OC)c(OC)c(OC)c32)cc(OC)c1OC` (centres undefined): the IC50 in the experiment with MCF7 and with MDA-MB-231 [1] was 27000 nM each time.
For the molecule `CN(Cc1ccccc1)Cc1c(O)ccc2c1O/C(=C\c1ccc3c(c1)OCO3)C2=O`, the IC50 in [2] came out at 310 nM.
On to `COc1ccc(/C=C2\Cc3c(cc(OC)c(OC)c3OC)C2=O)cc1O`, for which the IC50 on Tubulin is 7560 nM; in the experiment on HeLa it was 170 nM; in the experiment on A549, 170 nM; in the experiment with Bel-7402, 170 nM; with PC-3 it was 170 nM; with MDA-MB-231 [3] it was 170 nM.
With `COc1ccc2c(c1)O/C(=C\n1ccc3ccccc31)C2=O`, the IC50 was above 100000 nM in experiment [4] and 2.6 nM in experiment [5]. For the same molecule, in the experiment filed under Homo sapiens, the Ratio IC50 was above 38000.
Consider `CCCCc1ccc(/C=C2\Nc3cc(OC)cc(OC)c3C2=O)cc1`, for which the “Ratio IC50” value in experiment [6] came out at 4.8.
Molecule `O=C1/C(=C/c2cc(O)c(O)c(O)c2)Oc2ccccc21` had a Ki in experiment [7] of 2100 nM. The MIC in the experiment on Candida parapsilosis amounted to 53 µM (≈ 14.3 µg/mL).
On to `CN(C)c1ccc(/C=C2\Cc3cc(I)ccc3C2=O)cc1`, for which affinity in [8] was put at a Ki of 100 nM. That is a sub-micromolar value.
`O=C1/C(=C/c2ccc(O)c(O)c2)Oc2cc(O)ccc21`: the Activity in [9] was 89%; in experiment [10] it was 89%; in [11], 71%. In [12], the inhibition was 53%.
For `O=C1/C(=C/c2ccc(O)c(O)c2)Oc2c1ccc(O)c2O`, the EC50 in experiment [13] was determined as 12000 nM.
In turn, `O=C1/C(=C/c2ccc(O)cc2O)Cc2ccccc21` returned an IC50 at Tyrosinase of 34 nM.
On to `COc1cc(O)c2c(c1)O/C(=C\c1c[nH]c3nc(Cl)ccc13)C2=O`, for which the IC50 in [14] was determined as 8800 nM.
Still for that read-out and setting: the result for `O=C1/C(=C/c2cc(-c3ccncc3)[nH]n2)Oc2cc(O)cc(O)c21` reads 18000 nM.

The term IC50 denotes the concentration that gives 50% inhibition. The term Ki denotes the equilibrium dissociation constant of an inhibitor or competing ligand from its target. Low readings indicate tighter binding, high ones weaker binding. A word on the MIC: it is the lowest concentration that inhibits growth of the organism. As usually defined, the inhibition is the relative decrease from the control value, in per cent. By EC50 is commonly meant the concentration needed to bring the measured effect to its halfway point.

The values are drawn from ChEMBL document CHEMBL5236572, “Bioactive Aurones, Indanones, and Other Hemiindigoid Scaffolds: Medicinal Chemistry and Photopharmacology Perspectives” (J Med Chem, 2022).
